Measured values reported in patent US12480944B2, “Detection and analysis of cells” (First Light Diagnostics, Inc., priority 2018, dated 2025).
Read-outs that look alike come from different tables or passages of the source.

Experiments:
[1] = tested on: E. coli; design: key: previously determined antibiotic resistance (shown with “X”); “IR” = Intrinsically resistant; conditions: cited from earlier work
[2] = tested on: K. pneumoniae; design: key: previously determined antibiotic resistance (shown with “X”); “IR” = Intrinsically resistant; conditions: cited from earlier work
[3] = tested on: P. mirabilis; design: key: previously determined antibiotic resistance (shown with “X”); “IR” = Intrinsically resistant; conditions: cited from earlier work
[4] = tested on: P. aeruginosa; design: key: previously determined antibiotic resistance (shown with “X”); “IR” = Intrinsically resistant; conditions: cited from earlier work
[5] = tested on: K. oxytoca; design: key: previously determined antibiotic resistance (shown with “X”); “IR” = Intrinsically resistant; conditions: cited from earlier work
[6] = tested on: K. pneumonaie strain in clinical urine sample BIUR0084; experiment: Automated MultiPath AST cartridge on clinical urine specimen, Example 8; type: cell-based; conditions: clinical urine BIUR0084 (K. pneumoniae), fold growth value of 2; for growth call at all antibiotic concentrations: 2 concentrations; for sensitive/resistant call by MulitPath: 4 h growth at 35° C., matched CLSI BMD
[7] = strain K. pneumoniae ATCC 13883
[8] = strain P. aeruginosa ATCC 27853

## CC(C)(O/N=C(\C(=O)N[C@@H]1C(=O)N2C(C(=O)[O-])=C(C[n+]3ccccc3)CS[C@H]12)c1csc(N)n1)C(=O)O [Ceftazidime]
[1]; strain E. coli ATCC 25922
  previously determined antibiotic resistance: X
[1]; strain E. coli CDC0020
  previously determined antibiotic resistance: X
[1]; strain E. coli CDC0067
  previously determined antibiotic resistance: X
[1]; strain E. coli CDC0084
  previously determined antibiotic resistance: X
[1]; strain E. coli CDC0086
  previously determined antibiotic resistance: X
[1]; strain E. coli CDC0350
  previously determined antibiotic resistance: X
[2]; [7]
  previously determined antibiotic resistance: X
[2]; strain K. pneumoniae CDC0010
  previously determined antibiotic resistance: X
[2]; strain K. pneumoniae CDC0016
  previously determined antibiotic resistance: X
[2]; strain K. pneumoniae CDC0041
  previously determined antibiotic resistance: X
[2]; strain K. pneumoniae CDC0107
  previously determined antibiotic resistance: X
[2]; strain K. pneumoniae CDC0126
  previously determined antibiotic resistance: X
[2]; strain K. pneumoniae CDC0160
  previously determined antibiotic resistance: X
[3]; strain P. mirabilis ATCC 7002
  previously determined antibiotic resistance: X
[3]; strain P. mirabilis CDC0029
  previously determined antibiotic resistance: X
[3]; strain P. mirabilis CDC0059
  previously determined antibiotic resistance: X
[3]; strain P. mirabilis CDC0155
  previously determined antibiotic resistance: X
[3]; strain P. mirabilis CDC0156
  previously determined antibiotic resistance: X
[3]; strain P. mirabilis CDC0159
  previously determined antibiotic resistance: X
[4]; [8]
  previously determined antibiotic resistance: X
[4]; strain P. aeruginosa CDC0105
  previously determined antibiotic resistance: X
[4]; strain P. aeruginosa CDC0111
  previously determined antibiotic resistance: X
[4]; strain P. aeruginosa CDC0242
  previously determined antibiotic resistance: X
[4]; strain P. aeruginosa CDC0251
  previously determined antibiotic resistance: X
[4]; strain P. aeruginosa CDC0253
  previously determined antibiotic resistance: X
[5]; strain K. oxytoca CDC0028
  previously determined antibiotic resistance: X
[5]; strain K. oxytoca CDC0071
  previously determined antibiotic resistance: X
[5]; strain K. oxytoca CDC0147
  previously determined antibiotic resistance: X

## O=C(O)c1cn(C2CC2)c2cc(N3CCNCC3)c(F)cc2c1=O [Ciprofloxacin]
[1]; strain E. coli ATCC 25922
  previously determined antibiotic resistance: X
[1]; strain E. coli BAA-2452
  previously determined antibiotic resistance: X
[1]; strain E. coli BAA-2469
  previously determined antibiotic resistance: X
[1]; strain E. coli BAA-2471
  previously determined antibiotic resistance: X
[1]; strain E. coli CDC0017
  previously determined antibiotic resistance: X
[1]; strain E. coli CDC0019
  previously determined antibiotic resistance: X
[2]; [7]
  previously determined antibiotic resistance: X
[2]; strain K. pneumoniae CDC0016
  previously determined antibiotic resistance: X
[2]; strain K. pneumoniae CDC0034
  previously determined antibiotic resistance: X
[2]; strain K. pneumoniae CDC0076
  previously determined antibiotic resistance: X
[2]; strain K. pneumoniae CDC0117
  previously determined antibiotic resistance: X
[2]; strain K. pneumoniae CDC0126
  previously determined antibiotic resistance: X
[3]; strain P. mirabilis ATCC 7002
  previously determined antibiotic resistance: X
[3]; strain P. mirabilis CDC0029
  previously determined antibiotic resistance: X
[3]; strain P. mirabilis CDC0059
  previously determined antibiotic resistance: X
[3]; strain P. mirabilis CDC0155
  previously determined antibiotic resistance: X
[3]; strain P. mirabilis CDC0156
  previously determined antibiotic resistance: X
[3]; strain P. mirabilis CDC0159
  previously determined antibiotic resistance: X
[4]; [8]
  previously determined antibiotic resistance: X
[4]; strain P. aeruginosa CDC0251
  previously determined antibiotic resistance: X
[4]; strain P. aeruginosa CDC0253
  previously determined antibiotic resistance: X
[4]; strain P. aeruginosa CDC0259
  previously determined antibiotic resistance: X
[4]; strain P. aeruginosa CDC0261
  previously determined antibiotic resistance: X
[4]; strain P. aeruginosa CDC0262
  previously determined antibiotic resistance: X
[5]; strain K. oxytoca CDC0028
  previously determined antibiotic resistance: X
[5]; strain K. oxytoca CDC0071
  previously determined antibiotic resistance: X
[5]; strain K. oxytoca CDC0147
  previously determined antibiotic resistance: X

## C[C@@H](O)[C@H]1C(=O)N2C(C(=O)O)=C(S[C@@H]3CN[C@H](C(=O)N(C)C)C3)[C@H](C)[C@H]12 [Meropenem]
[1]; strain E. coli ATCC 25922
  previously determined antibiotic resistance: X
[1]; strain E. coli CDC0001
  previously determined antibiotic resistance: X
[1]; strain E. coli CDC0006
  previously determined antibiotic resistance: X
[1]; strain E. coli CDC0020
  previously determined antibiotic resistance: X
[1]; strain E. coli CDC0085
  previously determined antibiotic resistance: X
[1]; strain E. coli CDC0114
  previously determined antibiotic resistance: X
[2]; [7]
  previously determined antibiotic resistance: X
[2]; strain K. pneumoniae CDC0010
  previously determined antibiotic resistance: X
[2]; strain K. pneumoniae CDC0016
  previously determined antibiotic resistance: X
[2]; strain K. pneumoniae CDC0034
  previously determined antibiotic resistance: X
[2]; strain K. pneumoniae CDC0043
  previously determined antibiotic resistance: X
[2]; strain K. pneumoniae CDC0076
  previously determined antibiotic resistance: X
[2]; strain K. pneumoniae CDC0080
  previously determined antibiotic resistance: X
[3]; strain P. mirabilis ATCC 7002
  previously determined antibiotic resistance: X
[3]; strain P. mirabilis CDC0029
  previously determined antibiotic resistance: X
[3]; strain P. mirabilis CDC0059
  previously determined antibiotic resistance: X
[3]; strain P. mirabilis CDC0155
  previously determined antibiotic resistance: X
[3]; strain P. mirabilis CDC0156
  previously determined antibiotic resistance: X
[3]; strain P. mirabilis CDC0159
  previously determined antibiotic resistance: X
[4]; strain P. aeruginosa CDC0105
  previously determined antibiotic resistance: X
[4]; strain P. aeruginosa CDC0111
  previously determined antibiotic resistance: X
[4]; strain P. aeruginosa CDC0232
  previously determined antibiotic resistance: X
[4]; strain P. aeruginosa CDC0242
  previously determined antibiotic resistance: X
[4]; strain P. aeruginosa CDC0247
  previously determined antibiotic resistance: X
[5]; strain K. oxytoca CDC0028
  previously determined antibiotic resistance: X
[5]; strain K. oxytoca CDC0071
  previously determined antibiotic resistance: X
[5]; strain K. oxytoca CDC0147
  previously determined antibiotic resistance: X

## Trimethoprim/Sulfamethoxazole
[6]
  growth call at all antibiotic concentrations: growth
  sensitive/resistant call by MulitPath: resistant
[1]; strain E. coli ATCC 25922
  previously determined antibiotic resistance: X
[1]; strain E. coli BAA-2469
  previously determined antibiotic resistance: X
[1]; strain E. coli BAA-2471
  previously determined antibiotic resistance: X
[1]; strain E. coli CDC0017
  previously determined antibiotic resistance: X
[1]; strain E. coli CDC0019
  previously determined antibiotic resistance: X
[1]; strain E. coli CDC0084
  previously determined antibiotic resistance: X
[2]; [7]
  previously determined antibiotic resistance: X
[2]; strain K. pneumoniae CDC0010
  previously determined antibiotic resistance: X
[2]; strain K. pneumoniae CDC0016
  previously determined antibiotic resistance: X
[2]; strain K. pneumoniae CDC0107
  previously determined antibiotic resistance: X
[2]; strain K. pneumoniae CDC0117
  previously determined antibiotic resistance: X
[2]; strain K. pneumoniae CDC0126
  previously determined antibiotic resistance: X
[3]; strain P. mirabilis ATCC 7002
  previously determined antibiotic resistance: X
[3]; strain P. mirabilis CDC0029
  previously determined antibiotic resistance: X
[3]; strain P. mirabilis CDC0059
  previously determined antibiotic resistance: X
[3]; strain P. mirabilis CDC0155
  previously determined antibiotic resistance: X
[3]; strain P. mirabilis CDC0156
  previously determined antibiotic resistance: X
[3]; strain P. mirabilis CDC0159
  previously determined antibiotic resistance: X
[4]; [8]
  previously determined antibiotic resistance: IR
[4]; strain P. aeruginosa CDC0105
  previously determined antibiotic resistance: IR
[4]; strain P. aeruginosa CDC0111
  previously determined antibiotic resistance: IR
[4]; strain P. aeruginosa CDC0232
  previously determined antibiotic resistance: IR
[4]; strain P. aeruginosa CDC0242
  previously determined antibiotic resistance: IR
[4]; strain P. aeruginosa CDC0247
  previously determined antibiotic resistance: IR
[4]; strain P. aeruginosa CDC0251
  previously determined antibiotic resistance: IR
[4]; strain P. aeruginosa CDC0253
  previously determined antibiotic resistance: IR
[4]; strain P. aeruginosa CDC0259
  previously determined antibiotic resistance: IR
[4]; strain P. aeruginosa CDC0261
  previously determined antibiotic resistance: IR
[4]; strain P. aeruginosa CDC0262
  previously determined antibiotic resistance: IR
[5]; strain K. oxytoca CDC0028
  previously determined antibiotic resistance: X
[5]; strain K. oxytoca CDC0071
  previously determined antibiotic resistance: X
[5]; strain K. oxytoca CDC0147
  previously determined antibiotic resistance: X

## Cc1nnc(SCC2=C(C(=O)O)N3C(=O)[C@@H](NC(=O)Cn4cnnn4)[C@H]3SC2)s1 [Cefazolin]
[6]
  growth call at all antibiotic concentrations: growth
  sensitive/resistant call by MulitPath: resistant
